Results reported in US10941114B2, “Small molecule lipid II inhibitors” (University Of Maryland, Baltimore, priority 2015, dated 2021).
Structures can show the parent of a compound that is named as a salt.

Assays:
[1] = test system: Staphylococcus aureus; test: Antibacterial activity assay (MIC, broth dilution); type: cell-based; design: S. aureus Killing / Bacterial Killing S. aureus: unit not given here; conditions: for MIC: Staphylococcus aureus, Table 21, read-out: Staphylococcus aureus MIC; for S. aureus Killing: anti-bacterial activity (MIC), strain not stated; for MIC SA USA300: Staphylococcus aureus USA 300 strain, broth microdilution
[2] = test system: Enterococcus faecalis; test: Antibacterial activity assay (MIC, broth dilution); type: cell-based; conditions: for MIC: Enterococcus faecalis, Table 21, read-out: Escherichia feacalis MIC; for MIC EF 15951: Enterococcus faecalis 15951, broth microdilution

Row | SMILES | MIC [1] [µg/mL] | MIC [2] [µg/mL] | MIC SA USA300 [1] [µg/mL] | also measured
1 | CN(CCC#N)c1ccc(/C=C/c2cc(-c3ccc(Br)cc3)cc(-c3ccc(Br)cc3)[o+]2)cc1.F[B-](F)(F)F | > 64 | > 64 | – | –
2 | CN(CCC#N)c1ccc(/C=C/c2cc(-c3ccccc3)cc(-c3ccccc3)[o+]2)cc1.F[B-](F)(F)F | > 64 | > 64 | – | –
3 | Cc1ccc(-c2cc(/C=C/c3ccc(N(C)CCC#N)cc3)[o+]c(-c3ccc(C)cc3)c2)cc1.F[B-](F)(F)F | > 64 | > 64 | – | –
4 | CN(CCC#N)c1ccc(/C=C/c2cc(-c3ccc(C(C)(C)C)cc3)cc(-c3ccc(C(C)(C)C)cc3)[o+]2)cc1.F[B-](F)(F)F | > 64 | > 64 | – | –
5 | CN(C)c1ccc(/C=C/c2cc(-c3ccc(I)cc3)cc(-c3ccc(I)cc3)[o+]2)cc1.F[B-](F)(F)F | > 64 | > 64 | – | –
6 | CN(C)c1ccc(/C=C/c2cc(-c3ccc(F)c(F)c3)cc(-c3ccc(F)c(F)c3)[o+]2)cc1.F[B-](F)(F)F | > 64 | > 64 | – | –
7 | CN(CCC#N)c1ccc(/C=C/c2cc(-c3ccc(I)cc3)cc(-c3ccc(I)cc3)[o+]2)cc1.F[B-](F)(F)F | > 64 | > 64 | – | –
8 | CN(CCC#N)c1ccc(/C=C/c2cc(-c3ccc(C(F)(F)F)cc3)cc(-c3ccc(C(F)(F)F)cc3)[o+]2)cc1.F[B-](F)(F)F | > 64 | > 64 | – | –
9 | CN(CCC#N)c1ccc(/C=C/c2cc(-c3ccc(F)c(F)c3)cc(-c3ccc(F)c(F)c3)[o+]2)cc1.F[B-](F)(F)F | > 64 | > 64 | – | –
10 | CCN(CC)c1ccc(/C=C/c2cc(-c3ccc(F)cc3)cc(-c3ccc(F)cc3)[o+]2)c(O)c1.F[B-](F)(F)F | 64 | > 64 | – | –
11 | CCN(CCC#N)c1ccc(/C=C/c2cc(-c3ccc(Br)cc3)cc(-c3ccc(Br)cc3)[o+]2)c(C)c1.F[B-](F)(F)F | > 64 | > 64 | – | –
12 | CCN(CCC#N)c1ccc(/C=C/c2cc(-c3ccc(F)cc3)cc(-c3ccc(F)cc3)[o+]2)c(C)c1.F[B-](F)(F)F | > 64 | > 64 | – | –
13 | CCCN1CCCc2cc(/C=C/c3cc(-c4ccc(Br)cc4)cc(-c4ccc(Br)cc4)[o+]3)ccc21.F[B-](F)(F)F | > 64 | > 64 | – | –
14 | CCCN1CCCc2cc(/C=C/c3cc(-c4ccc(F)cc4)cc(-c4ccc(F)cc4)[o+]3)ccc21.F[B-](F)(F)F | > 64 | > 64 | – | –
15 | CN(C)c1ccc(/C=C/c2cc(-c3ccccc3)cc(-c3ccccc3)[o+]2)cc1 [(E)-2-(4-(dimethylamino)styryl)-4,6-diphenylpyrylium boron tetrafluoride salt] | – | – | – | S. aureus Killing [1]: 2
16 | CCc1ccc(-c2cc(/C=C/c3cn(C)c4ccccc34)[o+]c(-c3ccc(CC)cc3)c2)cc1 [(E)-2.4-bis(4-ethylphenyl)-6-(2-(1-methyl-1H-indol-3-yl)vinyl)pyrylium boron tetrafiuoride salt] | – | – | – | S. aureus Killing [1]: 1
17 | Cc1cc(/C=C/c2ccc(N(C)C)cc2)cc(C)[o+]1 [(E)-4-(4-(dimethylamino)styryl)-2,6-dimethvlpyrylium boron tetrafluoride salt] | – | – | – | S. aureus Killing [1]: 16
18 | CN(C)c1ccc(/C=C/c2cc(-c3ccc(F)cc3)cc(-c3ccc(F)cc3)[n+]2C)cc1.[I-] [Compound 2jc39-1, (E)-2-(4-(dimethylamino)styryl)-4,6-bis(4-fluorophenyl)-1-methylpyridin-1-ium iodide salt] | – | – | 4 | MIC EF 15951 [2]: 4 µg/mL
19 | CN(CCC#N)c1ccc(/C=C/c2cc(-c3ccc(F)cc3)cc(-c3ccc(F)cc3)[n+]2C)cc1.[I-] [Compound 2jc39-2, (E)-2-(4-((2-cyanoethyl)(methyl)amino)styryl)-4,6-bis(4-fluorophenyl)-1-methylpyridin-1-ium iodide salt] | – | – | 16 | MIC EF 15951 [2]: 16 µg/mL
20 | CN(C)c1ccc(/C=C/c2cc(-c3ccc(F)cc3)cc(-c3ccc(Br)cc3)[n+]2C)cc1.[I-] [Compound 2jc39-3, (E)-2-(4-bromophenyl)-6-(4-(dimethylamino)styryl)-4-(4-fluorophenyl)-1-methylpyridin-1-ium iodide salt] | – | – | 4 | MIC EF 15951 [2]: 4 µg/mL

Row | SMILES | MIC [1] [µg/mL] | MIC [2] [µg/mL] | MIC SA USA300 [1] [µg/mL] | also measured
21 | CN(C)c1ccc(/C=C/c2cc(-c3ccccc3)cc(-c3ccc(F)cc3)[n+]2C)cc1.[I-] [Compound 3jc07-1, (E)-2-(4-(dimethylamino)styryl)-6-(4-fluorophenyl)-1-methyl-4-phenylpyridin-1-ium iodide salt] | – | – | 4 | –
22 | CN(CCC#N)c1ccc(/C=C/c2cc(-c3ccccc3)cc(-c3ccc(F)cc3)[n+]2C)cc1.[I-] [Compound 3jc07-2, (E)-2-(4-((2-cyanoethyl)(methyl)amino)styryl)-6-(4-fluorophenyl)-1-methyl-4-phenylpyridin-1-ium iodide salt] | – | – | 32 | –
23 | CN(C)c1ccc(/C=C/c2cc(-c3ccccc3)cc(-c3ccc(Br)cc3)[n+]2C)cc1.[I-] [Compound 3jc07-3, (E)-2-(4-bromophenyl)-6-(4-(dimethylamino)styryl)-1-methyl-4-phenylpyridin-1-ium iodide salt] | – | – | 2 | –
24 | CN(CCC#N)c1ccc(/C=C/c2cc(-c3ccccc3)cc(-c3ccc(Br)cc3)[n+]2C)cc1.[I-] [Compound 3jc07-4, (E)-2-(4-bromophenyl)-6-(4-((2-cyanoethyl)(methyl)amino)styryl)-1-methyl-4-phenylpyridin-1-ium iodide salt] | – | – | 32 | –
25 | COc1ccc(-c2cc(/C=C/c3ccc(N(C)C)cc3)[n+](C)c(-c3ccc(F)cc3)c2)cc1.[I-] [Compound 3jc07-5, (E)-2-(4-(dimethylamino)styryl)-6-(4-fluorophenyl)-4-(4-methoxyphenyl)-1-methylpyridin-1-ium iodide salt] | – | – | 1 | –
26 | COc1ccc(-c2cc(/C=C/c3ccc(N(C)CCC#N)cc3)[n+](C)c(-c3ccc(F)cc3)c2)cc1.[I-] [Compound 3jc07-6, (E)-2-(4-((2-cyanoethyl)(methyl)amino)styryl)-6-(4-fluorophenyl)-4-(4-methoxyphenyl)-1-methylpyridin-1-ium iodide salt] | – | – | 16 | –
27 | COc1ccc(-c2cc(/C=C/c3ccc(N(C)C)cc3)[n+](C)c(-c3ccc(Br)cc3)c2)cc1.[I-] [Compound 3jc07-7, (E)-2-(4-bromophenyl)-6-(4-(dimethylamino)styryl)-4-(4-methoxyphenyl)-1-methylpyridin-1-ium iodide salt] | – | – | 1 | –
28 | COc1ccc(-c2cc(/C=C/c3ccc(N(C)CCC#N)cc3)[n+](C)c(-c3ccc(Br)cc3)c2)cc1.[I-] [Compound 3jc07-8] | – | – | 16 | –
29 | CN(C)c1ccc(/C=C/c2cc(-c3ccc(I)cc3)cc(-c3ccc(F)cc3)[n+]2C)cc1.[I-] [Compound 3jc07-9, (E)-2-(4-(dimethylamino)styryl)-6-(4-fluorophenyl)-4-(4-iodophenyl)-1-methylpyridin-1-ium iodide salt] | – | – | 4 | –
30 | CN(CCC#N)c1ccc(/C=C/c2cc(-c3ccc(I)cc3)cc(-c3ccc(F)cc3)[n+]2C)cc1.[I-] [Compound 3jc07-10, (E)-2-(4-((2-cyanoethyl)(methyl)amino)styryl)-6-(4-fluorophenyl)-4-(4-iodophenyl)-1-methylpyridin-1-ium iodide salt] | – | – | 32 | –
31 | CN(C)c1ccc(/C=C/c2cc(-c3ccc(I)cc3)cc(-c3ccc(Br)cc3)[n+]2C)cc1.[I-] [Compound 3jc07-11, (E)-2-(4-bromophenyl)-6-(4-(dimethylamino)styryl)-4-(4-iodophenyl)-1-methylpyridin-1-ium iodide salt] | – | – | 4 | –
32 | CN(CCC#N)c1ccc(/C=C/c2cc(-c3ccc(I)cc3)cc(-c3ccc(Br)cc3)[n+]2C)cc1 [Compound 3jc07-12, (E)-2-(4-bromophenyl)-6-(4-((2-cyanoethyl)(methyl)amino)styryl)-4-(4-iodophenyl)-1-methylpyridin-1-ium iodide salt] | – | – | 32 | –
33 | CN(CCC#N)c1ccc(/C=C/c2cc(-c3ccc(F)cc3)cc(-c3ccc(F)cc3)[o+]2)cc1.F[B-](F)(F)F [Compound 3jc09-1, (E)-2-(4-((2-cyanoethyl)(methyl)amino)styryl)-4,6-bis(4-fluorophenyl)pyrylium boron tetrafluoride salt] | – | – | > 64 | –
34 | CN(CCC#N)c1ccc(/C=C/c2cc(-c3ccc(Br)cc3)cc(-c3ccc(Br)cc3)[o+]2)cc1 [Compound 3jc09-2, (E)-2,4-bis(4-bromophenyl)-6-(4-((2-cyanoethyl)(methyl)amino)styryl)pyrylium boron tetrafluoride salt] | – | – | > 64 | –
35 | CN(C)c1ccc(/C=C/c2cc(-c3ccc(Br)cc3)cc(-c3ccc(Br)cc3)[o+]2)cc1 [drawing 88, (E)-2,4-bis(4-bromophenyl)-6-(4-(dimethylamino)styryl)pyrylium boron tetrafluoride salt] | – | – | – | S. aureus Killing [1]: 32
36 | CN1/C(=C/C=C/c2cc(-c3ccccc3)cc(-c3ccccc3)[o+]2)C(C)(C)c2ccccc21 [drawing 116, 2,4-diphenyl~6-((1E,3E)-3-(1,3,3-trimethylindolin-2-ylidene)prop-1-en-1-yl)pyrylium boron tetrafluoride salt] | – | – | – | S. aureus Killing [1]: 0.5
37 | Cc1ccc(-c2cc(/C=C/C=C3/N(C)c4ccccc4C3(C)C)[o+]c(-c3ccc(C)cc3)c2)cc1 [drawing 117, 2,4-di-p-tolyl-6-((1E,3E)-3-(1,3,3-trimethylindolin-2-ylidene)prop-1-en-1-yl)pyrylium boron tetrafluoride salt] | – | – | – | S. aureus Killing [1]: 1
38 | CCc1ccc(-c2cc(/C=C/c3cc4c5c(c3)CCCN5CCC4)[o+]c(-c3ccc(CC)cc3)c2)cc1 [drawing 120, (E)-2,4-bis(4-ethylphenyl)-6-(2-(1,2,3,5,6,7-hexahydropyrido [3,2,1-ij]quinolin-9-yl)vinyl)pyrylium boron tetrafluoride salt] | – | – | – | S. aureus Killing [1]: 1
39 | Cc1ccc(-c2cc(/C=C/c3cc4c5c(c3)CCCN5CCC4)[o+]c(-c3ccc(C)c(C)c3)c2)cc1C [drawing 122, (E)-2,4-bis(3.4-dimethyiphenyl)-6-(2-(1,2,3,5,6,7-hexahydropyrido [3,2,1-ij]quinolin-9-yl)vinyl)pyrylium boron tetrafluoride salt] | – | – | – | S. aureus Killing [1]: 0.5
